Tests used:
Type in all cases: in vivo
red clover = experiment: Test Example 5: phytotoxicity of soil irrigation treatment on red clover; settings: symptom growth inhibition
Method: (§1) The red clover seeds were sowed in a pot packed with soil (1/10000 ares) and Orobanche minor seeds were sowed around the red clover seeds, followed by cultivation in a greenhouse. After 10, 20 and 30 days of the sowing, agent liquid prepared into a predetermined concentration was irrigation-treated at a ratio of 20 ml/pot.

Orobanche minor [1] = experiment: Test Example 2: soil irrigation treatment, parasitism of Orobanche minor on red clover; settings: for Average parasitism frequency per root: soil irrigation 20 ml/pot at 10, 20 and 30 days after sowing, untreated plot 2.55; for S4 bud formation per root: untreated plot 0.52
Method: The red clover seeds were sowed in a pot packed with soil (1/10000 ares) and Orobanche minor seeds were sowed around the red clover seeds, followed by cultivation in a greenhouse. After 10, 20 and 30 days of the sowing, an agent liquid prepared into a predetermined concentration was irrigation-treated at a ratio of 20 ml/pot.

Orobanche minor [2] = experiment: Test Example 5: soil irrigation treatment, parasitism of Orobanche minor on red clover; settings: for Average parasitism frequency per root: soil irrigation 20 ml/pot at 10, 20 and 30 days after sowing, untreated plot 2.08; for S4 bud formation per root: untreated plot 0.45
Method: as §1

Orobanche minor [3] = experiment: Test Example 3: foliage application treatment, parasitism of Orobanche minor on red clover; settings: for Average parasitism frequency per root: foliage application at 10, 20 and 30 days after sowing, untreated plot 2.55; for S4 bud formation per root: untreated plot 0.52
Excerpt: (§2) The red clover seeds were sowed in a pot packed with soil (1/10000 ares) and Orobanche minor seeds were sowed around the red clover seeds, followed by cultivation in a greenhouse. After 10, 20 and 30 days of the sowing, sufficient amount of agent liquid diluted to a predetermined concentration with water was applied to the foliage using an atomizer, from single- to double-leaf stage of the red clover.

crop plants = experiment: Phytotoxicity for crop plants (general statement); settings: general statement in the description
Orobanche minor [4] = experiment: Test Example 4: seed soaking treatment, parasitism of Orobanche minor on red clover; settings: for S4 bud formation per root / Average parasitism frequency per root: seed soaking 24 h; for S4 bud formation per root: untreated plot 0.45; for Average parasitism frequency per root: untreated plot 2.08
Method: Red clover seeds were soaked for 24 hours in agent liquid which had been prepared into a predetermined concentration. The red clover seeds were sowed in a pot packed with soil (1/10000 ares) and Orobanche minor seeds were sowed around the red clover seeds, followed by cultivation in a greenhouse. Growth of the red clover and the parasitism frequency and growth of Orobanche minor were observed by visual observation.

Orobanche minor [5] = experiment: Test Example 1: seed soaking treatment, parasitism of Orobanche minor on red clover; settings: for Average parasitism frequency per root / S4 bud formation per root: seed soaking 24 h; for Average parasitism frequency per root: red clover host, untreated plot 2.55; for S4 bud formation per root: untreated plot 0.52
Method: Red clover seeds were soaked for 24 hours in agent liquid which had been prepared into a predetermined concentration. The red clover seeds were sowed in a pot packed with soil (1/10000 ares) and Orobanche minor seeds were sowed around the red clover seeds, followed by cultivation in a greenhouse. Growth of the red clover and the parasitism frequency and growth of Orobanche minor were observed by visual observation. The growth of Orobanche minor was evaluated based on the following four steps. [table]

parasitic plant = experiment: Parasitic plant controlling activity (general statement); settings: general statement in the description
Orobanche minor [6] = experiment: Test Example 6: foliage application treatment, parasitism of Orobanche minor on red clover; settings: for Average parasitism frequency per root: foliage application at 10, 20 and 30 days after sowing, untreated plot 2.08; for S4 bud formation per root: untreated plot 0.45
Excerpt: as §2

[7] = seed soaking, all treatment plots (200 and 20 ppm)

Cc1ccc(NC(=O)c2snnc2C)cc1Cl [TDN, tiadinil]
phytotoxicity (red clover; 200 ppm): weak
phytotoxicity (red clover; 2000 ppm): strong
effective concentration (Orobanche minor [1]; soil irrigation): ≥ 200 ppm
parasitism, dose relation (Orobanche minor [1]; soil irrigation): dose-related lowering
Average parasitism frequency per root (Orobanche minor [1]; 2 ppm): 2.36 per root
Average parasitism frequency per root (Orobanche minor [1]; 20 ppm): 1.71 per root
Average parasitism frequency per root (Orobanche minor [1]; 200 ppm): 0.53 per root
Average parasitism frequency per root (Orobanche minor [1]; 2000 ppm): 0.03 per root
S4 bud formation per root (Orobanche minor [1]; soil irrigation, 2 ppm): 0.17 per root
S4 bud formation per root (Orobanche minor [1]; soil irrigation, 20 ppm): 0.10 per root
S4 bud formation per root (Orobanche minor [1]; soil irrigation, 200 ppm): 0.16 per root
Parasitism (Orobanche minor [1]; soil irrigation, 2000 ppm): hardly found
S4 bud formation per root (Orobanche minor [1]; soil irrigation, 2000 ppm): 0.00 per root
Average parasitism frequency per root (Orobanche minor [2]; 20 ppm): 2.22 per root
Average parasitism frequency per root (Orobanche minor [2]; 200 ppm): 1.55 per root
Average parasitism frequency per root (Orobanche minor [2]; 2000 ppm): 0.22 per root
S4 bud formation per root (Orobanche minor [2]; soil irrigation, 20 ppm): 0.13 per root
S4 bud formation per root (Orobanche minor [2]; soil irrigation, 200 ppm): 0.11 per root
parasitism frequency (Orobanche minor [2]; soil irrigation, 2000 and 200 ppm): reducing tendency
S4 bud formation per root (Orobanche minor [2]; soil irrigation, 2000 ppm): 0.07 per root
S4 bud formation (Orobanche minor [2]; soil irrigation, all treatment plots): reduced
parasitism, dose relation (Orobanche minor [3]; foliage application): dose-related lowering
Average parasitism frequency per root (Orobanche minor [3]; 20 ppm): 1.49 per root
Average parasitism frequency per root (Orobanche minor [3]; 200 ppm): 1.02 per root
Average parasitism frequency per root (Orobanche minor [3]; 2000 ppm): 0.24 per root
S4 bud formation per root (Orobanche minor [3]; foliage application, 20 ppm): 0.15 per root
S4 bud formation per root (Orobanche minor [3]; foliage application, 200 ppm): 0.06 per root
effect on parasitism (Orobanche minor [3]; foliage application, 2000 ppm): high effect
S4 bud formation per root (Orobanche minor [3]; foliage application, 2000 ppm): 0.03 per root
phytotoxicity (crop plants): low
S4 bud formation per root (Orobanche minor [4]; 20 ppm): 0.10 per root
Average parasitism frequency per root (Orobanche minor [4]; 20 ppm): 1.12 per root
S4 bud formation per root (Orobanche minor [4]; 200 ppm): 0.12 per root
Average parasitism frequency per root (Orobanche minor [4]; 200 ppm): 0.05 per root
S4 bud formation (Orobanche minor [4]; [7]): decreasing tendency
total parasitism frequency of Orobanche minor (Orobanche minor [4]; [7]): decreasing tendency
Average parasitism frequency per root (Orobanche minor [5]; 20 ppm): 1.07 per root
S4 bud formation per root (Orobanche minor [5]; 20 ppm): 0.08 per root
Average parasitism frequency per root (Orobanche minor [5]; 200 ppm): 2.57 per root
S4 bud formation per root (Orobanche minor [5]; 200 ppm): 0.21 per root
Average parasitism frequency per root (Orobanche minor [5]; 2000 ppm): 2.01 per root
S4 bud formation per root (Orobanche minor [5]; 2000 ppm): 0.15 per root
number of total parasitized cases of Orobanche minor (Orobanche minor [5]; seed soaking, 20 ppm): reducing tendency
parasitic plant controlling activity (parasitic plant): high
Average parasitism frequency per root (Orobanche minor [6]; 20 ppm): 2.25 per root
Average parasitism frequency per root (Orobanche minor [6]; 200 ppm): 1.92 per root
Average parasitism frequency per root (Orobanche minor [6]; 2000 ppm): 0.34 per root
S4 bud formation per root (Orobanche minor [6]; foliage application, 20 ppm): 0.49 per root
parasitism frequency decreasing tendency (Orobanche minor [6]; foliage application, 200 ppm or less): unclear
S4 bud formation per root (Orobanche minor [6]; foliage application, 200 ppm): 0.35 per root
S4 bud formation (Orobanche minor [6]; foliage application, 2000 and 200 ppm): decreasing tendency
parasitism frequency (Orobanche minor [6]; foliage application, 2000 ppm): decreasing tendency
S4 bud formation per root (Orobanche minor [6]; foliage application, 2000 ppm): 0.15 per root
